In patent US9550976B2, “Methods for compact aggregation of dermal cells” (THE TRUSTEES OF COLUMBIA UNIVERSITY IN THE CITY OF NEW YORK, priority 2006, dated 2017):

How the values were obtained:
[1] = system: hair follicle morphogenesis in embryonic skin cultures; assay: Mouse embryonic skin organ culture, effects of reduced HA on hair follicle morphogenesis; format: cell-based; settings: for in vivo skin stage to which the cultured skin / follicles correspond: after 72 hr in culture of 14.5 dpc skin, histology and syndecan-1 pattern
Method: To study the effects of HA misexpression in the development of a HF, an embryonic skin organ culture model was utilized. To assess how representative this model was for investigating the role of HA distribution in vivo, the expression of CD44 and HA in the cultured embryonic skin was first investigated. Embryonic skin cultures were established using pre-hair follicle initiation (14.5 dpc) skin and were incubated for 72 hrs. The cultured skin hair placodes became visible after 24 hr in culture. After 72 hr, skins were removed from culture, sectioned, and the expression of both HA and CD44 were assessed (FIG. 19). The dermal condensate was negative for HA staining (red) while expressing CD44 (green). Expression of both proteins in the HF of the cultured backskin was virtually indiscernible from that of 16.5 dpc back skin in vivo (FIG. 19). The effects of HA synthesis downregulation of hair follicle morphogenesis was investigated. Embryonic skin was cultured for 72 hrs in the presence of BSA (control) or one of two HAS inhibitors, leflunomide (Lef) (50 nM) or 4-methylumbelliferone (30 mM). In the presence of BSA, CD44 was localized predominantly to the dermal condensate, while HA remained absent from the dermal condensate (FIG. 20). […] To ascertain whether this reduction was due to an actual inhibitory effect of Lef on hair follicle morphogenesis and development, cultured skin from all treatments and control groups were enzymatically split and the separated epidermis inverted to allow the visualization of the developing epidermal hair germs. […] To explore the effects of a global degradation of HA protein on hair follicle morphogenesis within the skin cultures, embryonic skin was cultured for 72 hrs in the presence of either BSA (control) or hyaluronanase (HAase) (25 units/ml). […] Following 72 hrs in culture, embryonic skin from the four treatments described above were cryo-embedded, sectioned, and stained with hematoxylin and eosin (H&E) for histological study. […] After 72 hr in culture, follicles corresponded to those found in 14.5 dpc skin in vivo, both histologically and in their syndecan-1 expression patterns (FIG. 22).

hair follicle formation = settings: whole skin organ culture; as previously shown (Kashiwagi 1997); cited from earlier work
[2] = Lef 50 nM, 4-methylumbelliferone 30 mM
[3] = embryonic skin cultured 72 hrs, Lef 50 nM, 4-methylumbelliferone 30 mM, HAase 25 units/ml
[4] = embryonic skin cultured 72 hrs, Lef 50 nM, 4-methylumbelliferone 30 mM, HAase 25 units/ml, vs BSA control

Row | Compound | in vivo skin stage to which the cultured skin / follicles correspond [1, 2] [dpc] | Syndecan-1 expression (marker of the dermal condensation) ([1]; embryonic skin cultured 72 hrs, 4-methylumbelliferone 30 mM, HAase 25 units/ml) | histology (H&E) of cultured skin [1, 3] | number of visible follicles on the surface of the skin [1, 4] | size and number of epidermal hair germs on the inverted, enzymatically separated epidermis ([1]; embryonic skin cultured 72 hrs, Lef 50 nM, HAase 25 units/ml, vs BSA control) | hair follicle formation (hair follicle formation)
1 | Cc1cc(=O)oc2cc(O)ccc12 [4-methylumbelliferone] | 16.5 | normal hair follicle development | indistinguishable from the control skin | no effect on the number of visible follicles | – | –
2 | Cc1oncc1C(=O)Nc1ccc(C(F)(F)F)cc1 [Lef, leflunomide] | 14.5 | – | inhibition of follicle development | reduction in the number of visible follicle on the surface of the skin | smaller and sparser than those of the control | –
3 | EGF: growth factor used to inhibit hair follicle formation in skin organ culture (NSYPGCPSSYDGYCLNGGVCMHIESLDSYTCNCVIGYSGDRCQTRDLRWWELR; UniProt P01132 977-1029, looked up) | – | – | – | – | – | completely inhibited
